Experimental data from ChEMBL document CHEMBL1201862, “PubChem BioAssay data set” (2004).
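A five-concentration, 48-hour dose response in 96-well plates underlies each endpoint, interpolated linearly between surrounding concentrations. The concentration for 50% growth inhibition is given as GI50.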 Calls of active or inactive are those of the source. Rule as the data show it: active = GI50 up to about 1.1 µM and inactive = higher.

Columns and labels:
Assay in all cases: NCI-60 cell line screen, 48 h
OVCAR-5 = test system: OVCAR-5
MDA-N = test system: MDA-N
OVCAR-8 = test system: OVCAR-8
HCT-116 = test system: HCT-116
HT-29 = test system: HT-29
SF-295 = test system: SF-295
HL-60 = test system: HL-60
SNB-75 = test system: SNB-75
SK-MEL-28 = test system: SK-MEL-28
HOP-92 = test system: HOP-92
SK-MEL-2 = test system: SK-MEL-2
CCRF-CEM = test system: CCRF-CEM
EKVX = test system: EKVX
OVCAR-4 = test system: OVCAR-4
CAKI-1 = test system: CAKI-1
SF-539 = test system: SF-539
UACC-62 = test system: UACC-62
DU-145 = test system: DU-145
NCI-H23 = test system: NCI-H23
SR = test system: SR

Row | SMILES | GI50 (OVCAR-5) | GI50 (MDA-N) | GI50 (OVCAR-8) | GI50 (HCT-116) | GI50 (HT-29) | GI50 (SF-295) | GI50 (HL-60) | GI50 (SNB-75) | GI50 (SK-MEL-28) | GI50 (HOP-92) | GI50 (SK-MEL-2) | GI50 (CCRF-CEM) | GI50 (EKVX) | GI50 (OVCAR-4) | GI50 (CAKI-1) | GI50 (SF-539) | GI50 (UACC-62) | GI50 (DU-145) | GI50 (NCI-H23) | GI50 (SR)
1 | COc1ccc(-c2c(C#N)c(-c3ccccc3)n(NS(=O)(=O)c3ccccc3)c(=O)c2C#N)cc1 | > 100 µM (inactive) | > 100 µM (inactive) | 97.1 µM (inactive) | > 100 µM (inactive) | > 100 µM (inactive) | > 100 µM (inactive) | 60.3 µM (inactive) | 50.8 µM (inactive) | > 100 µM (inactive) | 26.2 µM (inactive) | 94.6 µM (inactive) | 36.9 µM (inactive) | > 100 µM (inactive) | > 100 µM (inactive) | > 100 µM (inactive) | 90.6 µM (inactive) | 79.8 µM (inactive) |  |  | 
2 | O=c1c2ccccc2nc(-c2ccc(Cl)cc2)n1O | 47.4 µM (inactive) | 35.6 µM (inactive) | 16.5 µM (inactive) | 29.7 µM (inactive) | 45.7 µM (inactive) | 27.5 µM (inactive) | 18.3 µM (inactive) | 38.2 µM (inactive) |  | 15.6 µM (inactive) |  | 14.1 µM (inactive) | 21.7 µM (inactive) | 37 µM (inactive) | 15.2 µM (inactive) | 23.8 µM (inactive) | 35.9 µM (inactive) | 89.9 µM (inactive) | 48.4 µM (inactive) | 
3 | CN(C)/C=N/c1nc2ncn(CCOC(=O)c3ccccc3)c2c(=O)[nH]1 | > 100 µM (inactive) |  | > 100 µM (inactive) | > 100 µM (inactive) | > 100 µM (inactive) | > 100 µM (inactive) | > 100 µM (inactive) | > 100 µM (inactive) | > 100 µM (inactive) | > 100 µM (inactive) | > 100 µM (inactive) | > 100 µM (inactive) | > 100 µM (inactive) | > 100 µM (inactive) | > 100 µM (inactive) | > 100 µM (inactive) | > 100 µM (inactive) |  |  | > 100 µM (inactive)
4 | COc1ccc(CCC2c3cc(OC)c(OC)cc3CCN2C)cc1OC (stereo not drawn) | > 100 µM (inactive) |  | > 100 µM (inactive) | > 100 µM (inactive) | > 100 µM (inactive) | > 100 µM (inactive) | > 100 µM (inactive) | > 100 µM (inactive) | > 100 µM (inactive) | 46 µM (inactive) | > 100 µM (inactive) | > 100 µM (inactive) | > 100 µM (inactive) | > 100 µM (inactive) | > 100 µM (inactive) | > 100 µM (inactive) | > 100 µM (inactive) |  | > 100 µM (inactive) | > 100 µM (inactive)
5 | CC1=NN(c2nc(N)nc(/C(C#N)=C/c3ccncc3)n2)C(C)(C)C1 |  |  | > 100 µM (inactive) | > 100 µM (inactive) | > 100 µM (inactive) | > 100 µM (inactive) | 52.1 µM (inactive) | > 100 µM (inactive) | > 100 µM (inactive) | > 100 µM (inactive) | > 100 µM (inactive) | 49.3 µM (inactive) | > 100 µM (inactive) | > 100 µM (inactive) | > 100 µM (inactive) | > 100 µM (inactive) | > 100 µM (inactive) | 47.4 µM (inactive) | > 100 µM (inactive) | 74.6 µM (inactive)
6 | CC(=O)NC(C=O)C(O[C@H](C)C(=O)NC(C)C(=O)NC(CCC(N)=O)C(=O)OCc1ccccc1)C(O)C(O)COC(=O)CCNc1c2ccccc2nc2cccc([N+](=O)[O-])c12 (stereo partly drawn) | 3.44 µM (inactive) |  | 4.89 µM (inactive) | 1.37 µM (inactive) | 2.14 µM (inactive) | 13.1 µM (inactive) | 11.5 µM (inactive) | 3.97 µM (inactive) | 3.19 µM (inactive) | 2.31 µM (inactive) | 1.63 µM (inactive) | 1.94 µM (inactive) | 5.7 µM (inactive) | 12.2 µM (inactive) | 1.45 µM (inactive) | 6.12 µM (inactive) | 3.23 µM (inactive) |  | 2.47 µM (inactive) | 0.637 µM (active)
7 | C=CC(=C)CCC(Br)C(C)(C)Cl (stereo not drawn) | > 100 µM (inactive) | > 100 µM (inactive) | > 100 µM (inactive) | > 100 µM (inactive) | > 100 µM (inactive) | > 100 µM (inactive) | 37.1 µM (inactive) | > 100 µM (inactive) | > 100 µM (inactive) | > 100 µM (inactive) | > 100 µM (inactive) | 87.5 µM (inactive) | > 100 µM (inactive) | > 100 µM (inactive) |  | > 100 µM (inactive) | > 100 µM (inactive) | > 100 µM (inactive) | > 100 µM (inactive) | 
8 | COc1cc(/C=C2\NC(=O)N(/C=C3\C(=O)Oc4ccccc4C3=O)C2=O)ccc1O | > 100 µM (inactive) | > 100 µM (inactive) | 56 µM (inactive) | > 100 µM (inactive) | 54.5 µM (inactive) | > 100 µM (inactive) | 20.7 µM (inactive) | 13.8 µM (inactive) |  | > 100 µM (inactive) | > 100 µM (inactive) | 32.7 µM (inactive) | > 100 µM (inactive) | 91.8 µM (inactive) | 59.8 µM (inactive) | 63.1 µM (inactive) | 49 µM (inactive) | 87.1 µM (inactive) | 80.2 µM (inactive) | 
9 | Nc1sc2c(c1C(=O)c1ccc(Cl)c(Cl)c1)CCCC2 | > 100 µM (inactive) |  | 67 µM (inactive) | 40.4 µM (inactive) | 36.4 µM (inactive) | 37.2 µM (inactive) | 22.6 µM (inactive) | 12.1 µM (inactive) | > 100 µM (inactive) | 24.5 µM (inactive) | 15 µM (inactive) | 26.4 µM (inactive) | 29.1 µM (inactive) | 28.7 µM (inactive) | 56.8 µM (inactive) | 71.8 µM (inactive) | 92 µM (inactive) | > 100 µM (inactive) | 45.3 µM (inactive) | 27.8 µM (inactive)
10 | CN1Cc2c(nc(-c3ccc(Br)cc3)c[n+]2[O-])N(C)C1 | > 100 µM (inactive) |  | > 100 µM (inactive) | > 100 µM (inactive) | > 100 µM (inactive) | > 100 µM (inactive) | > 100 µM (inactive) | > 100 µM (inactive) | > 100 µM (inactive) | > 100 µM (inactive) | > 100 µM (inactive) | > 100 µM (inactive) | > 100 µM (inactive) | > 100 µM (inactive) | > 100 µM (inactive) | > 100 µM (inactive) |  |  | > 100 µM (inactive) | > 100 µM (inactive)
11 | Oc1[nH]c(Nc2ccc(F)c(Cl)c2)nc2ncnc1-2 | > 100 µM (inactive) | > 100 µM (inactive) | > 100 µM (inactive) | > 100 µM (inactive) | > 100 µM (inactive) | > 100 µM (inactive) | > 100 µM (inactive) | 25.9 µM (inactive) | > 100 µM (inactive) | > 100 µM (inactive) | > 100 µM (inactive) | > 100 µM (inactive) | > 100 µM (inactive) | > 100 µM (inactive) | > 100 µM (inactive) | > 100 µM (inactive) | > 100 µM (inactive) | > 100 µM (inactive) | > 100 µM (inactive) | 
12 | c1ccc(C[P+]2(c3ccccc3)c3ccccc3-c3ccccc32)cc1 |  | > 100 µM (inactive) | > 100 µM (inactive) | > 100 µM (inactive) |  | > 100 µM (inactive) | > 100 µM (inactive) | > 100 µM (inactive) | > 100 µM (inactive) | > 100 µM (inactive) |  | > 100 µM (inactive) | > 100 µM (inactive) |  | > 100 µM (inactive) | > 100 µM (inactive) | > 100 µM (inactive) | > 100 µM (inactive) | > 100 µM (inactive) | 
13 | Nc1nc(O)nc2sc3c(c12)CCCC3 | > 100 µM (inactive) |  | > 100 µM (inactive) | 57 µM (inactive) | 68.2 µM (inactive) |  | 88.5 µM (inactive) | 19.7 µM (inactive) | 25.2 µM (inactive) | > 100 µM (inactive) | > 100 µM (inactive) | 41.3 µM (inactive) | 7.48 µM (inactive) | 38.5 µM (inactive) |  | 42.8 µM (inactive) | 32.1 µM (inactive) | > 100 µM (inactive) | > 100 µM (inactive) | 51.5 µM (inactive)
14 | C/C=C\C(CC(=O)OC)CC(=O)N(CCC1CN(S(=O)(=O)C(F)(F)F)c2ccccc21)Cc1ccc(OC)cc1OC (stereo not drawn) | > 100 µM (inactive) | > 100 µM (inactive) |  | 76.2 µM (inactive) |  | > 100 µM (inactive) |  | > 100 µM (inactive) | > 100 µM (inactive) | > 100 µM (inactive) | > 100 µM (inactive) |  | > 100 µM (inactive) | 54.7 µM (inactive) | > 100 µM (inactive) | > 100 µM (inactive) |  |  | > 100 µM (inactive) | 
15 | CC1=C(SCc2ccccc2)C(=O)c2ccccc2C1=O | 25.5 µM (inactive) |  | 13.4 µM (inactive) | 4.23 µM (inactive) | 30.3 µM (inactive) | 18.1 µM (inactive) | 3.73 µM (inactive) | 13.4 µM (inactive) | 19.2 µM (inactive) | 4.72 µM (inactive) | 17.8 µM (inactive) | 2.9 µM (inactive) | 19.1 µM (inactive) | 13.9 µM (inactive) | 13.4 µM (inactive) | 14.8 µM (inactive) | 15.8 µM (inactive) | 19.8 µM (inactive) | 17.9 µM (inactive) | 
16 | O=C(Nc1sccc1S(=O)(=O)c1ccc(Cl)cc1)c1ccc(Cl)cc1Cl | > 84.5 µM (inactive) |  | > 100 µM (inactive) | > 100 µM (inactive) | > 76.2 µM (inactive) | 37.8 µM (inactive) | > 100 µM (inactive) | > 100 µM (inactive) | > 100 µM (inactive) | > 93.1 µM (inactive) | > 100 µM (inactive) | > 100 µM (inactive) | > 79.4 µM (inactive) | > 93.8 µM (inactive) | > 100 µM (inactive) | > 100 µM (inactive) | > 62.2 µM (inactive) | > 100 µM (inactive) | > 81.3 µM (inactive) | 12.1 µM (inactive)
